Test results: patent EP3789378A1, “PIPERIDINES OR PIPERIDONES SUBSTITUTED WITH UREA AND HETEROARYL” (Grünenthal GmbH, priority 2019, dated 2021)

Molecular target: T1, h FPR2 (Homo sapiens, UniProt P25090)
T1 construct: expressed in transfected cells
T1 sequence (P25090 1-351): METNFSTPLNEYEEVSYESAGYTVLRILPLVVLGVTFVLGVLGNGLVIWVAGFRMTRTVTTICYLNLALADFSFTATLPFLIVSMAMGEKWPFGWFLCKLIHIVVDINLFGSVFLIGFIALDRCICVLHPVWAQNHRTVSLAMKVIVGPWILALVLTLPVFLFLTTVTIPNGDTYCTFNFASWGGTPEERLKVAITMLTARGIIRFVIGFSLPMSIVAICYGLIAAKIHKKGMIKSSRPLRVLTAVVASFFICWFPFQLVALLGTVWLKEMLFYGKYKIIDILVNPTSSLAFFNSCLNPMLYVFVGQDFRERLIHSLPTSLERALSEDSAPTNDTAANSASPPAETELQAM
Assay: Agonistic activity in hFPR2-Aq-CHO cells (FLIPR Calcium 5 fluorescence assay)
Assay type: cell-based
Conditions: 11 point half log dilution, final assay concentration from 10µM
How it was run: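 EC50 reflects the compound-evoked rise in Calcium 5 fluorescence over basal, recorded for 5 min on FLIPR and compared with no-compound wells. Dye-loaded hFPR2-Aq-CHO cells received half-log dilutions from 10 µM to 100 pM final in pH 7.4 HBSS buffer.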

Going from `O=C(Nc1ccccc1)N[C@@H]1CCN(CC(F)F)C[C@H]1c1ccc(Cl)cn1` (relative stereo) [Ex-153, trans-1-[3-(5-Chloro-pyridin-2-yl)-1-(2,2-difluoro-ethyl)-piperidin-4-yl]-3-phenyl-urea] to `COc1ccc([C@@H]2CN(CCO)CC[C@H]2NC(=O)Nc2ccccc2)nc1` (relative stereo) [Ex-164, trans-1-[1-(2-Hydroxy-ethyl)-3-(5-methoxy-pyridin-2-yl)-piperidin-4-yl]-3-phenyl-urea], the EC50 rises from 12 nM to 56 nM (4.7-fold).

Compared with `COCCN1CC[C@@H](NC(=O)Nc2ccc(C#N)cc2)[C@H](c2ccc(OC)cn2)C1` (relative stereo) [Ex-154, trans-1-(4-Cyano-phenyl)-3-[1-(2-methoxy-ethyl)-3-(5-methoxy-pyridin-2-yl)-piperidin-4-yl]-urea], `COCCCN1CC[C@@H](NC(=O)Nc2ccccc2)[C@H](c2ccc(OC)cn2)C1` (relative stereo) [Ex-158, trans-1-[1-(3-Methoxy-propyl)-3-(5-methoxy-pyridin-2-yl)-piperidin-4-yl]-3-phenyl-urea] is 3.1-fold higher in EC50: 10 nM for the first, 31 nM for the second.

Going from `COc1ccc([C@@H]2CN(CC3(C#N)CC3)CC[C@H]2NC(=O)Nc2ccc(Cl)cc2)nc1` (relative stereo) [Ex-155, trans-1-(4-Chlorophenyl)-3-[1-[(1-cyano-cyclopropyl)-methyl]-3-(5-methoxy-pyridin-2-yl)-piperidin-4-yl]-urea] to `COc1ccc([C@@H]2CN(CC3(O)CC3)CC[C@H]2NC(=O)Nc2ccc(Cl)cc2)nc1` (relative stereo) [Ex-163, trans-1-(4-Chlorophenyl)-3-[1-[(1-hydroxy-cyclopropyl)-methyl]-3-(5-methoxy-pyridin-2-yl)-piperidin-4-yl]-urea], the EC50 rises from 0.09 nM to 0.8 nM (8.9-fold).

`COc1ccc([C@@H]2CN(C(=O)C3CCN(C)CC3)CC[C@H]2NC(=O)Nc2ccccc2)nc1` (relative stereo) [Ex-156, trans-1-[3-(5-Methoxy-pyridin-2-yl)-1-(1-methyl-piperidine-4-carbonyl)-piperidin-4-yl]-3-phenyl-urea] and `COc1ccc([C@@H]2CN(C(=O)CN(C)C)CC[C@H]2NC(=O)Nc2ccccc2)nc1` (relative stereo) [Ex-157, trans-1-[1-(2-Dimethylamino-acetyl)-3-(5-methoxy-pyridin-2-yl)-piperidin-4-yl]-3-phenyl-urea] are within 1.5-fold of each other in EC50: 58 nM for the first, 81 nM for the second.

Compared with `COc1ccc([C@@H]2CN(CCCO)CC[C@H]2NC(=O)Nc2ccccc2)nc1` (relative stereo) [Ex-159, trans-1-[1-(3-Hydroxy-propyl)-3-(5-methoxy-pyridin-2-yl)-piperidin-4-yl]-3-phenyl-urea], `COc1ccc([C@@H]2CN(CCS(C)(=O)=O)CC[C@H]2NC(=O)Nc2ccccc2)nc1` (relative stereo) [Ex-160, trans-1-[3-(5-Methoxy-pyridin-2-yl)-1-(2-methylsulfonyl-ethyl)-piperidin-4-yl]-3-phenyl-urea] is 1.5-fold higher in EC50: 57 nM for the first, 88 nM for the second. The first is the more potent here.

First: COc1ccc([C@@H]2CN(CC3COC3)CC[C@H]2NC(=O)Nc2ccccc2)nc1 (relative stereo) [Ex-161, trans-1-[3-(5-Methoxy-pyridin-2-yl)-1-(oxetan-3-yl-methyl)-piperidin-4-yl]-3-phenyl-urea]
Second: COc1ccc([C@@H]2CN(C3(C#N)CC3)CC[C@H]2NC(=O)Nc2ccc(Cl)cc2)nc1 (relative stereo) [Ex-180, trans-1-(4-Chlorophenyl)-3-[1-(1-cyano-cyclopropyl)-3-(5-methoxy-pyridin-2-yl)-piperidin-4-yl]-urea]
The EC50 of the first is 56-fold higher: 28 nM for the first, 0.5 nM for the second.

First: O=C(Nc1ccccc1)N[C@@H]1CCN(C(=O)C2CCNCC2)C[C@H]1c1ccc(Cl)cn1 (relative stereo) [Ex-167, trans-1-[3-(5-Chloro-pyridin-2-yl)-1-(piperidine-4-carbonyl)-piperidin-4-yl]-3-phenyl-urea]
Second: CS(=O)(=O)n1ccc(CN2CC[C@@H](NC(=O)Nc3ccccc3)[C@H](c3ccc(Cl)cn3)C2)n1 (relative stereo) [Ex-184, trans-1-[5-chloro-1'-(1-methanesulfonyl-1H-pyrazol-3-ylmethyl)-1',2',3',4',5',6'-hexahydro-[2,3']bipyridinyl-4'-yl]-3-phenyl-urea]
The EC50 of the first is 61-fold higher: 85 nM for the first, 1.4 nM for the second. The second is the more potent here.

First: COc1ccc([C@@H]2CN(C3(C(N)=O)CC3)CC[C@H]2NC(=O)Nc2ccc(Cl)cc2)nc1 (relative stereo) [Ex-181, trans-1-[4-[[(4-Chlorophenyl)-carbamoyl]amino]-3-(5-methoxy-pyridin-2-yl)-piperidin-1-yl]-cyclopropane-1-carboxylic acid amide]
Second: COc1ccc([C@@H]2CN(CC3(O)CC3)CC[C@H]2NC(=O)Nc2cc(C)ns2)nc1 (relative stereo) [Ex-182, trans-1-[1'-(1-hydroxy-cyclopropylmethyl)-5-methoxy-1',2',3',4',5',6'-hexahydro-[2,3']bipyridinyl-4'-yl]-3-(3-methyl-isothiazol-5-yl)-urea]
The EC50 of the first is 2.2-fold lower: 0.9 nM for the first, 2 nM for the second.

Same assay, conditions: agonistic response at 0.1µM

Compared with `COc1ccc([C@@H]2CN(C3COC3)CC[C@H]2NC(=O)Nc2ccccc2)nc1` (relative stereo) [Ex-162, trans-1-[3-(5-Methoxy-pyridin-2-yl)-1-(oxetan-3-yl)-piperidin-4-yl]-3-phenyl-urea], `O=C(Nc1ccccc1)N[C@@H]1CCN(C2CNC2)C[C@H]1c1ccc(Cl)cn1` (relative stereo) [Ex-185, trans-1-(1'-azetidin-3-yl-5-chloro-1',2',3',4',5',6'-hexahydro-[2,3']bipyridinyl-4'-yl)-3-phenyl-urea] is lower in activation at 0.1 µM: 34% for the first, 19% for the second.

First: COc1ccc([C@@H]2CNCC[C@H]2NC(=O)Nc2ccc(Cl)cc2)nc1 (relative stereo) [Ex-169, trans-1-(4-Chlorophenyl)-3-[3-(5-methoxy-pyridin-2-yl)-piperidin-4-yl]-urea]
Second: COc1ccc([C@@H]2CN(CC(N)=O)CC[C@H]2NC(=O)Nc2ccc(Cl)cc2)nc1 (relative stereo) [Ex-171, trans-2-[4-[[(4-Chlorophenyl)-carbamoyl]amino]-3-(5-methoxy-pyridin-2-yl)-piperidin-1-yl]-acetamide]
The activation at 0.1 µM of the first is higher: 23% for the first, 3% for the second.

Going from `COc1ccc([C@@H]2CN(CC3CC3)CC[C@H]2NC(=O)Nc2ccc(Cl)cc2)nc1` (relative stereo) [Ex-173, trans-1-(4-Chlorophenyl)-3-[1-(cyclopropyl-methyl)-3-(5-methoxy-pyridin-2-yl)-piperidin-4-yl]-urea] to `COc1ccc([C@@H]2CN(CC(C)(C)O)CC[C@H]2NC(=O)Nc2ccc(Cl)cc2)nc1` (relative stereo) [Ex-178, trans-1-(4-Chlorophenyl)-3-[1-(2-hydroxy-2-methyl-propyl)-3-(5-methoxy-pyridin-2-yl)-piperidin-4-yl]-urea], the activation at 0.1 µM falls from 44% to 0.2%.

First: COc1ccc([C@@H]2CN(CC(F)F)CC[C@H]2NC(=O)Nc2ccc(C#N)cc2)nc1 (relative stereo) [Ex-175, trans-1-(4-Cyano-phenyl)-3-[1-(2,2-difluoro-ethyl)-3-(5-methoxy-pyridin-2-yl)-piperidin-4-yl]-urea]
Second: COc1ccc([C@@H]2CN(CC(C)(C)O)CC[C@H]2NC(=O)Nc2cc(C)ns2)nc1 (relative stereo) [Ex-176, trans-1-[1-(2-Hydroxy-2-methyl-propyl)-3-(5-methoxy-pyridin-2-yl)-piperidin-4-yl]-3-(3-methyl-isothiazol-5-yl)-urea]
The activation at 0.1 µM of the first is higher: 17% for the first, 5% for the second.
